In patent publication US12185743B2, “Processes for transglucosylation of steviol glycosides” (Beijing Gingko-Group Biological Technology Co., Ltd., priority 2019, dated 2025):

Experiment: Dissolution of RebD and RebM
Assay type: physicochemical
Details: without maltooligosaccharides

Structure (SMILES)	dissolution
C=C1C[C@@]23CC[C@H]4[C@@](C)(CCC[C@@]4(C)C(=O)O[C@@H]4O[C@H](CO)[C@@H](O)[C@H](O)[C@H]4O[C@@H]4O[C@H](CO)[C@@H](O)[C@H](O)[C@H]4O)[C@@H]2CC[C@]1(O[C@@H]1O[C@H](CO)[C@@H](O)[C@H](O[C@@H]2O[C@H](CO)[C@@H](O)[C@H](O)[C@H]2O)[C@H]1O[C@@H]1O[C@H](CO)[C@@H](O)[C@H](O)[C@H]1O)C3 [RebD, Rebaudioside D]	do not dissolve completely
C=C1C[C@@]23CC[C@H]4[C@@](C)(CCC[C@@]4(C)C(=O)O[C@@H]4O[C@H](CO)[C@@H](O)[C@H](O[C@@H]5O[C@H](CO)[C@@H](O)[C@H](O)[C@H]5O)[C@H]4O[C@@H]4O[C@H](CO)[C@@H](O)[C@H](O)[C@H]4O)[C@@H]2CC[C@]1(O[C@@H]1O[C@H](CO)[C@@H](O)[C@H](O[C@@H]2O[C@H](CO)[C@@H](O)[C@H](O)[C@H]2O)[C@H]1O[C@@H]1O[C@H](CO)[C@@H](O)[C@H](O)[C@H]1O)C3 [RebM, Rebaudioside M]	do not dissolve completely
